Assay results taken from ChEMBL document CHEMBL5465560, “Selectivity Literature for EUbOPEN Chemogenomic Library” (2024).

Columns and labels:
[1] = biological target: Tyrosine-protein kinase JAK2 (Homo sapiens, UniProt O60674); test: Selectivity interaction (KinomeScan (DiscoverX)) EUB0000695a JAK2; conditions: at 100 nM
[2] = tested on: PI3-kinase p110-alpha/p85-alpha (Homo sapiens), P27986+P42336 [E545K]; test: Selectivity interaction (Adapta Assay) EUB0001632a PIK3CA; type: protein-complex assay; conditions: at 10 µM
[3] = biological target: Mitogen-activated protein kinase 11 (Homo sapiens) (UniProt Q15759); test: Selectivity interaction (Kinase panel (Z-LYTE Assay)) EUB0001632a MAPK11; conditions: at 10 µM
[4] = biological target: Protein polybromo-1 (Homo sapiens) (UniProt Q86U86); test: Selectivity interaction (Bromodomain panel (DSF asssay)) EUB0000270b PBRM1
[5] = biological target: Sodium-dependent noradrenaline transporter (Homo sapiens, UniProt P23975); test: Selectivity interaction (Eurofins CEREP Diversity Profile (receptors and ion channels)) EUB0000279b SLC6A2; conditions: at 10 µM
[6] = biological target: T1, cAMP-dependent protein kinase catalytic subunit PRKX (Homo sapiens) (UniProt P51817); test: Selectivity interaction (Upstate Kinase Profiler service (Millipore)) EUB0000056c PRKX; conditions: at 1 µM
T1 sequence (whole entry): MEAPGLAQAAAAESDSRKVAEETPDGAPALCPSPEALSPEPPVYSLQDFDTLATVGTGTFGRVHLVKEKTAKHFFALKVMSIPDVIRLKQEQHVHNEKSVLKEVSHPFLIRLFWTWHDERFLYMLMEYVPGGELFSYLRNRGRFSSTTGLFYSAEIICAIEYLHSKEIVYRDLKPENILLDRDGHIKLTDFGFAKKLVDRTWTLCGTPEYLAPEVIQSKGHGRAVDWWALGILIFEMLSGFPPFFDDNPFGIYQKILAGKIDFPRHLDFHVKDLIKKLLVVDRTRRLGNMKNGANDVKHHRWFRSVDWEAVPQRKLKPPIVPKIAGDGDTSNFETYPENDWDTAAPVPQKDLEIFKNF

[7] = biological target: Tyrosine-protein kinase JAK1 (Homo sapiens, UniProt P23458); test: Selectivity interaction (ActivX KiNativ screen (ex vivo kinase selectivity in human PBMCs)) EUB0001619a JAK1; type: cell-based; conditions: PBMC, at 1 µM
Tyrosine-protein kinase JAK1, sequence (P23458 whole entry, canonical isoform): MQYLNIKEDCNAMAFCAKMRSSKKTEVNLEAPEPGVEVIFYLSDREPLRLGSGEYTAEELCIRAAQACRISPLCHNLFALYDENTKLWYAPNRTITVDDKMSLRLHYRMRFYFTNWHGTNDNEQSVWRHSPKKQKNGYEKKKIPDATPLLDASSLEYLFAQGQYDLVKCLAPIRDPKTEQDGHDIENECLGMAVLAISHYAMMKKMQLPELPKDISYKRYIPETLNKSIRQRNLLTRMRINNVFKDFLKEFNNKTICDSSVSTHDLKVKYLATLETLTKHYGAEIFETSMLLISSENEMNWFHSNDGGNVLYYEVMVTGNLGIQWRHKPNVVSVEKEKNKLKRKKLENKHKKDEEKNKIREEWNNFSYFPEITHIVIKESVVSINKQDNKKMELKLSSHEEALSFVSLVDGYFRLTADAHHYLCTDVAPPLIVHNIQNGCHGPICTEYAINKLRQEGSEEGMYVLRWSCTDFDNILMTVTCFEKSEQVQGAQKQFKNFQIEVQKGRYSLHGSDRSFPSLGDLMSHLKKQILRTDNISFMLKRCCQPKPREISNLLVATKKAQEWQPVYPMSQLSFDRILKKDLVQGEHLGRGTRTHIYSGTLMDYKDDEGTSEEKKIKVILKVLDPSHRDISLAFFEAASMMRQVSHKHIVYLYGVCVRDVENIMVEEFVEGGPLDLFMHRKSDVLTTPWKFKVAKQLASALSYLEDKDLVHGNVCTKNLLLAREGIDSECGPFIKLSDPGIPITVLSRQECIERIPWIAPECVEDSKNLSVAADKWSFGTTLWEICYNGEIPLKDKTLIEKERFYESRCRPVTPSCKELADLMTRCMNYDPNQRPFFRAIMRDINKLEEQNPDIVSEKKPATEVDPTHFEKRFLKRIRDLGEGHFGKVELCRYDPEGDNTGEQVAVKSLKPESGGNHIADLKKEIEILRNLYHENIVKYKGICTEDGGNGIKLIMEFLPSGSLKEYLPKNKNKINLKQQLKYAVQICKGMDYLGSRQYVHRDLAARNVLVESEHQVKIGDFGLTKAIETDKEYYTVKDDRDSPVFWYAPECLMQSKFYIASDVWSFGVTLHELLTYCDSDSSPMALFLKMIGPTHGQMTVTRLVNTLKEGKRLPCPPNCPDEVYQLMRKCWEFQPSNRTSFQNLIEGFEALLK

[8] = tested on: Phosphatidylinositol 4,5-bisphosphate 3-kinase catalytic subunit alpha isoform (Homo sapiens), P42336 [M1043I]; conditions: at 10 µM
Phosphatidylinositol 4,5-bisphosphate 3-kinase catalytic subunit alpha isoform (Homo sapiens), P42336 [M1043I], sequence (P42336 whole entry M1043I, canonical isoform): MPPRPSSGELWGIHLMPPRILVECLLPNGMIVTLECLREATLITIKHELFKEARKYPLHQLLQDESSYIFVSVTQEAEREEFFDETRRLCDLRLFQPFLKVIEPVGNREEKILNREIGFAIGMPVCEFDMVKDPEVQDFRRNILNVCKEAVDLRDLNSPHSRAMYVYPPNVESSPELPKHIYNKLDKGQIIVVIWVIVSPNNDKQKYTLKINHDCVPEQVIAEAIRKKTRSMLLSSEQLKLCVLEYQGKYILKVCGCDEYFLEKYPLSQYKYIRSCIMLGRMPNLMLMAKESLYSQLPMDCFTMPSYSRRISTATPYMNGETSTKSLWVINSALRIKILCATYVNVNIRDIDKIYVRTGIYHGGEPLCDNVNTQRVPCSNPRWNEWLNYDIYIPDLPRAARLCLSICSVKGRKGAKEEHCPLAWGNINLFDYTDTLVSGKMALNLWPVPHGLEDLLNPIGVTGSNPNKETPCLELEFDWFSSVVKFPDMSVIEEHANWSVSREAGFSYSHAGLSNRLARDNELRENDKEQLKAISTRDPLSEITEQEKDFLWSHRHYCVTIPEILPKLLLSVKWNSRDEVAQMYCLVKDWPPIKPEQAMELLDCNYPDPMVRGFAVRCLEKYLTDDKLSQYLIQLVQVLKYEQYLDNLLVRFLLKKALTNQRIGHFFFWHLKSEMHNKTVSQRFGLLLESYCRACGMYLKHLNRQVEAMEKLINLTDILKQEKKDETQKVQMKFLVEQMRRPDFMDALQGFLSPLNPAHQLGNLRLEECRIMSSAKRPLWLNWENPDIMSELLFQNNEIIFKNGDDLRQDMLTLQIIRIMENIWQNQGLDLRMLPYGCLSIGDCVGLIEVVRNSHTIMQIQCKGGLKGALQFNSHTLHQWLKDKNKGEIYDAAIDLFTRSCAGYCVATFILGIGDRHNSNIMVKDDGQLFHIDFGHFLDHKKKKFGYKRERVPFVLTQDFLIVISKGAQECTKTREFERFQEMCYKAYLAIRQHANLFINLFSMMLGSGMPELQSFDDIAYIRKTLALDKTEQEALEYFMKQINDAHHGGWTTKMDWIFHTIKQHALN

[9] = biological target: Proto-oncogene tyrosine-protein kinase ROS (Homo sapiens) (UniProt P08922); test: Selectivity interaction (SelectScreen profiling (Invitrogen)) EUB0000607a ROS1; conditions: at 2 µM
[10] = biological target: Cyclin-dependent kinase 5 (Homo sapiens, UniProt Q00535); test: Selectivity interaction (ActivX KiNativ screen (kinase selectivity in THP-1 cell lysates)) EUB0000639a CDK5; type: subcellular; conditions: lysate, at 0.01 µM
[11] = biological target: Aurora kinase B (Homo sapiens, UniProt Q96GD4); test: Selectivity interaction (ActivX KiNativ screen (kinase selectivity in THP-1 cell lysates)) EUB0000639a AURKB; type: subcellular; conditions: lysate, at 5 µM
Aurora kinase B, sequence (Q96GD4 whole entry): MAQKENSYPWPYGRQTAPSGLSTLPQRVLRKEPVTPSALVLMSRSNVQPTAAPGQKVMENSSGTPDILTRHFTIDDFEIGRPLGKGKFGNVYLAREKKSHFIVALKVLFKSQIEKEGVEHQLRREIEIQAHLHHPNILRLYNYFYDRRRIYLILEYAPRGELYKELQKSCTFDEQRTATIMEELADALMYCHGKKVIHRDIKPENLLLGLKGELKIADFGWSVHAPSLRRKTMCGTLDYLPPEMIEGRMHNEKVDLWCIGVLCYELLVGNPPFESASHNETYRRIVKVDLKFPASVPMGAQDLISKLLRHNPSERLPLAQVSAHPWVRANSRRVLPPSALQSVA

[12] = biological target: Homeodomain-interacting protein kinase 2 (Homo sapiens, UniProt Q9H2X6); test: Selectivity interaction (Kinase panel (Invitrogen)) EUB0000639a HIPK2; conditions: at 200 nM
[13] = biological target: T2, Serine/threonine-protein kinase D3 (Homo sapiens) (UniProt O94806); test: Selectivity interaction (ActivX KiNativ screen (kinase selectivity in THP-1 cell lysates)) EUB0000639a PRKD3; type: subcellular; conditions: lysate, at 0.04 µM
T2 sequence (whole entry): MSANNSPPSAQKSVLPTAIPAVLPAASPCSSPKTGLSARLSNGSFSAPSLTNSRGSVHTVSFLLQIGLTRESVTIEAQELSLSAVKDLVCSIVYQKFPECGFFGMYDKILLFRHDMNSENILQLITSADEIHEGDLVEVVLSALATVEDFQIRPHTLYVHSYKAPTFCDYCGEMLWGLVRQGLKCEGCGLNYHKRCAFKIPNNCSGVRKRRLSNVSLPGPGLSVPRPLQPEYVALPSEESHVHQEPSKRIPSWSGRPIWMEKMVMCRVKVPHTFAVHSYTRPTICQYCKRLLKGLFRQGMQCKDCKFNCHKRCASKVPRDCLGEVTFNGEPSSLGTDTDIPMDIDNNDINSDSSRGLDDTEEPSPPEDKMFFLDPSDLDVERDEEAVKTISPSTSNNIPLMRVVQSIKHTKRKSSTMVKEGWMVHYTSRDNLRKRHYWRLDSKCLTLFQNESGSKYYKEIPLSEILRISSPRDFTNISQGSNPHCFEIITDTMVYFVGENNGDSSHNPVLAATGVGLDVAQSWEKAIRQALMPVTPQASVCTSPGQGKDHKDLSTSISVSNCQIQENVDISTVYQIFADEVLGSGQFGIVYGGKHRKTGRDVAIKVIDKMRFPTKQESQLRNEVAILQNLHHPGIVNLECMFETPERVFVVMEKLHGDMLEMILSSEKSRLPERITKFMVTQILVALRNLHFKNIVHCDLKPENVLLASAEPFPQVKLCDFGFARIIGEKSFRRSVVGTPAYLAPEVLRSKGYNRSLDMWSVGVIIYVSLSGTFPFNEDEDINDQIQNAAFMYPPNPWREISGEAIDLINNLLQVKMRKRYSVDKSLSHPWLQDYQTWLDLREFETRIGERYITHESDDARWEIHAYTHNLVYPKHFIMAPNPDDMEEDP

[14] = tested on: Phosphatidylinositol 4,5-bisphosphate 3-kinase catalytic subunit alpha isoform (Homo sapiens), P42336 [E545K]; conditions: at 10 µM
Phosphatidylinositol 4,5-bisphosphate 3-kinase catalytic subunit alpha isoform (Homo sapiens), P42336 [E545K], sequence (P42336 whole entry E545K, canonical isoform): as the sequence (P42336 whole entry M1043I, canonical isoform) above, with E545K, I1043M counted along it

[15] = biological target: Receptor tyrosine-protein kinase erbB-4 (Homo sapiens, UniProt Q15303); conditions: at 10 µM
Receptor tyrosine-protein kinase erbB-4, sequence (Q15303 whole entry): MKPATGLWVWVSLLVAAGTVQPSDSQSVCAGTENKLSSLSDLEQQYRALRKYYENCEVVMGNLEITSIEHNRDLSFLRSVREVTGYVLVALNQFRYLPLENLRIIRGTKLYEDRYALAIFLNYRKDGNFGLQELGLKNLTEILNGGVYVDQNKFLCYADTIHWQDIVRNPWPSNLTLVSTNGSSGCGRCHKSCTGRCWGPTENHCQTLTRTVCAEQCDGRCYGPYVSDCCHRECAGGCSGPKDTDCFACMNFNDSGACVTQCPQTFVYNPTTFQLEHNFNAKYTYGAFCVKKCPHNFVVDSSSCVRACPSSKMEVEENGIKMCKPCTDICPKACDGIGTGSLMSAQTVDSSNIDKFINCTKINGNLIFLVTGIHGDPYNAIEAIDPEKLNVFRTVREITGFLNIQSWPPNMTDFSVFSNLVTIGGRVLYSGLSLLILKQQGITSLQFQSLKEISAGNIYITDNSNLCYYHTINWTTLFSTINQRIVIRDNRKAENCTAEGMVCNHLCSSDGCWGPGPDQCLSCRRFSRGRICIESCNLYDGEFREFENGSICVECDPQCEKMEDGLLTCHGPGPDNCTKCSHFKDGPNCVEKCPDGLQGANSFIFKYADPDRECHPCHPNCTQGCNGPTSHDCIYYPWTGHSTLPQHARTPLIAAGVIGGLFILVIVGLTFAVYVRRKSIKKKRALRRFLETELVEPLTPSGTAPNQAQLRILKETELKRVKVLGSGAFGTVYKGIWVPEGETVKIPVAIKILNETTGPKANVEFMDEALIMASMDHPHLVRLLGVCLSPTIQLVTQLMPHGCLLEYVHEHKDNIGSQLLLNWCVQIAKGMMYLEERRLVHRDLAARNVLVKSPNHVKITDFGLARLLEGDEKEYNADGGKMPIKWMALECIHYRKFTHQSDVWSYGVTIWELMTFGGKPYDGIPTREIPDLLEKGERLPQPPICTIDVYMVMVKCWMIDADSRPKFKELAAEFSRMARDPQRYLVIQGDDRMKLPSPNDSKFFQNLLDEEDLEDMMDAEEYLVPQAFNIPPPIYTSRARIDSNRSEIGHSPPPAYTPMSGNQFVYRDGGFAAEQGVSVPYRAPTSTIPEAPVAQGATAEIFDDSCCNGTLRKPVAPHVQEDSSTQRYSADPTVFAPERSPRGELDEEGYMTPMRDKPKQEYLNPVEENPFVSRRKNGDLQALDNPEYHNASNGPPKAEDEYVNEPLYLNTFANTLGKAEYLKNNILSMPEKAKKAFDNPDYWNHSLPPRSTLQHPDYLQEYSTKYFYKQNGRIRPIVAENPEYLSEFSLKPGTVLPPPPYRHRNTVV

[16] = biological target: Tyrosine-protein kinase Fyn (Homo sapiens) (UniProt P06241); test: Selectivity interaction (KinomeScan (DiscoverX)) EUB0000092b FYN; conditions: at 10 µM

Tyrosine-protein kinase JAK2, sequence (O60674 whole entry): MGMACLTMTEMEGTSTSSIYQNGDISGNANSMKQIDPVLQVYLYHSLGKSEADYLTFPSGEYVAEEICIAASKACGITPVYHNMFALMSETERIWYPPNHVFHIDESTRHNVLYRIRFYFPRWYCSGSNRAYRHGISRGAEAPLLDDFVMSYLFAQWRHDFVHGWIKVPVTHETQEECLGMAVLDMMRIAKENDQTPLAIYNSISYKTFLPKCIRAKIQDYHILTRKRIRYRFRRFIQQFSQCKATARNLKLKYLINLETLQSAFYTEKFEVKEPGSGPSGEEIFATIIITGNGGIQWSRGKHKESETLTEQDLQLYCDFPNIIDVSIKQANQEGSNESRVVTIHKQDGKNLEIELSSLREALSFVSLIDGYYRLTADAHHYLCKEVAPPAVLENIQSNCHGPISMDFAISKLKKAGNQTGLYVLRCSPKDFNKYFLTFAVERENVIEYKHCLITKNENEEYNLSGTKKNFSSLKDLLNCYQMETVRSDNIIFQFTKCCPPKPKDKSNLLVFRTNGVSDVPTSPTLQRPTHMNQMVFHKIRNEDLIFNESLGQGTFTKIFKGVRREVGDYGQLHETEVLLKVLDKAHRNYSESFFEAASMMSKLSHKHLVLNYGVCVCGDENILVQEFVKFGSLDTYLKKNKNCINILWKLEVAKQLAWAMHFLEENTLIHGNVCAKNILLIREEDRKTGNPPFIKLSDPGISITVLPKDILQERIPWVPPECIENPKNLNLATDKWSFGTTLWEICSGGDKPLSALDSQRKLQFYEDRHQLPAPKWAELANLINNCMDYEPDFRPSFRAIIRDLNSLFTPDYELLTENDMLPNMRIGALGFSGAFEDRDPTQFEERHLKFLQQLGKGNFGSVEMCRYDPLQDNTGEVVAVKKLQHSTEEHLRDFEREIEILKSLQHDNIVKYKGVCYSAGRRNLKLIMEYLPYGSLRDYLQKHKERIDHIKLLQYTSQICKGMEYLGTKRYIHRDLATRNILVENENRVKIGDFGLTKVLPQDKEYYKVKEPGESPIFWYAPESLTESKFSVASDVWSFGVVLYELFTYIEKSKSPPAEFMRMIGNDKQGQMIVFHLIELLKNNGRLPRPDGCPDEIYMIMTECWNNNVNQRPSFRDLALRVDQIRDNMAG

Question: `Cc1cc(F)c(C(=O)Nc2cccc(-c3nncn3C(C)C)n2)cc1-n1cnc(C2CC2)c1` was tested. Which % of control [1] did it give?
Answer: 85%

Question: `Cn1cc(-n2cnc3c(NCc4nc5cc(Cl)c(Cl)cc5[nH]4)nc(N4CCOCC4)nc32)cn1` was tested. Which % of inhibition [2] did it give?
Answer: 20%

Question: And the % of control [3]?
Answer: 1.54%

Question: How did the dTM [4] turn out when `Cc1cc(CN)cc(C)c1-c1ncn(C)c1-c1cncn1C` was run?
Answer: -1.91 K

Question: For `CC(=O)c1cc(-c2ccccc2OCC2CC2)c2ncccn12`, which % of control [5] is on record?
Answer: 90%

Question: `Cc1ccc(-c2ccc3c(ccc4sc5c(c43)NC[C@@H](C)NC5=O)n2)cn1` was tested. Which % of inhibition [6] did it give?
Answer: 8%

Question: With `N#Cc1cccc(-c2c[nH]c3ncnc(N4CCOCC4)c23)c1` as the molecule, how does the % of inhibition [7] read?
Answer: 5%

Question: Which results are given for `CNC(=O)Nc1ccc(-c2nc(N3CC4CCC(C3)O4)c3cnn(C4CCC5(CC4)OCCO5)c3n2)cc1`?
Answer: % of control [8]: 4.4%; % of inhibition [9]: 2%

Question: How did the % of inhibition [10] turn out when `CC[C@@H]1[C@H](F)C(=O)N[C@@H]1COc1nccc2cc(C(N)=O)c(OC)cc12` [ZIMLOVISERTIB] was run?
Answer: -4.7%

Question: And the % of inhibition [11]?
Answer: 64.4%

Question: And the % of inhibition [12]?
Answer: 4.6%

Question: What about the % of inhibition [13] of the same molecule?
Answer: 3.3%

Question: For `CCN(CC)CCCCNc1ncc2cc(-c3cc(OC)cc(OC)c3)c(NC(=O)NC(C)(C)C)nc2n1`, which % of control [14] is on record?
Answer: 100%

Question: And the % of control [15]?
Answer: 100%

Question: For `CCC(=O)N1CCN(c2ccc(-n3c(=O)ccc4cnc5ccc(-c6cnc7ccccc7c6)cc5c43)cc2C(F)(F)F)CC1`, which % of control [16] is on record?
Answer: 49%
